Our source for the IC50 and Ki values is ChEMBL document CHEMBL1909046, “DrugMatrix in vitro pharmacology data”.

Usually IC50 stands for the concentration needed to halve the response being measured. As usually defined, the Ki is the dissociation constant of the complex between target and ligand, obtained from inhibition or displacement.

A short description of assay [1]: DRUGMATRIX: Phosphodiesterase PDE4 enzyme inhibition (substrate: [3H]cAMP + cAMP). The settings on record: u-937, Not Active = under 50% inhibition at 10 µM.
The target in assay [2] is Melanocortin receptor 3 (Homo sapiens, UniProt P41968). It is filed as cell membranes, HEK293, Membrane. Also: in other assays of this panel Not Active means under 50% inhibition at 10 µM.
Assay [3] concerns the target T1, Muscarinic acetylcholine receptor M2 (Homo sapiens, UniProt P08172). Also: in other assays of this panel Not Active means under 50% inhibition at 10 µM.
T1 sequence (P08172 whole entry): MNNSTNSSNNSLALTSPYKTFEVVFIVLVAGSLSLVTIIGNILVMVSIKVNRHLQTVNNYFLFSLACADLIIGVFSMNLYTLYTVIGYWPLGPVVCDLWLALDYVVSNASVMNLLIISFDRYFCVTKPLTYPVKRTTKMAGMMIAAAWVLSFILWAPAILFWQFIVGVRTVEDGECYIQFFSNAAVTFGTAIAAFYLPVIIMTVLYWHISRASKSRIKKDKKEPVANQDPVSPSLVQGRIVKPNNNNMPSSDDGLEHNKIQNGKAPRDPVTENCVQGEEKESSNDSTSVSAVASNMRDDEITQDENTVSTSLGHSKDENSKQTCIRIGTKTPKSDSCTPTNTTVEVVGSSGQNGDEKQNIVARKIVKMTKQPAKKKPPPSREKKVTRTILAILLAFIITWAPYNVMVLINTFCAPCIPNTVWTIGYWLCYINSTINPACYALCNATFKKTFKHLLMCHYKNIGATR
It counts as cell membranes, CHO-K1, Membrane. To be noted: cho-k1.

For assay [4], the target named is T2, Amine oxidase [flavin-containing] A (Homo sapiens, UniProt P21397).
T2 sequence (P21397 whole entry): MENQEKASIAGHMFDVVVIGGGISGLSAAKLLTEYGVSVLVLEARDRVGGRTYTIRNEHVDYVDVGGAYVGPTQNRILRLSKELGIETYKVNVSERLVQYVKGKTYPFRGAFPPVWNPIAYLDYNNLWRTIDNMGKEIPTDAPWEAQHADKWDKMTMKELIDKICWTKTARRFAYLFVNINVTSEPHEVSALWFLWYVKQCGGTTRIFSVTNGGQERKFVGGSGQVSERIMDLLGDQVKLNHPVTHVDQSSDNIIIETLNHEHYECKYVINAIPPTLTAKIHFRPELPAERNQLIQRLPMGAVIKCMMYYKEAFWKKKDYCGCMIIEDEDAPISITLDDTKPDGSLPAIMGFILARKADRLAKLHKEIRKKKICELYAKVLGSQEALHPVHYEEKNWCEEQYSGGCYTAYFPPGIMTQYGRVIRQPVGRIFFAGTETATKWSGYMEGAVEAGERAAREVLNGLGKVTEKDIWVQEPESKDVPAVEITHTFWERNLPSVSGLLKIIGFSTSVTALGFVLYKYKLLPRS
The assay can be described thus: DRUGMATRIX: Monoamine Oxidase MAO-A enzyme inhibition (substrate: Kynuramine). The settings on record: bti-tn-5b1-4; Not Active = under 50% inhibition at 10 µM. Also on record: species or system BTI-TN-5B1-4.

Assay [5] deals with 5-hydroxytryptamine receptor 4 (Cavia porcellus, UniProt O70528). It is filed as cell membranes, Dunkin-Hartley, Striatum, Membrane.
Chain of 5-hydroxytryptamine receptor 4 (O70528 whole entry): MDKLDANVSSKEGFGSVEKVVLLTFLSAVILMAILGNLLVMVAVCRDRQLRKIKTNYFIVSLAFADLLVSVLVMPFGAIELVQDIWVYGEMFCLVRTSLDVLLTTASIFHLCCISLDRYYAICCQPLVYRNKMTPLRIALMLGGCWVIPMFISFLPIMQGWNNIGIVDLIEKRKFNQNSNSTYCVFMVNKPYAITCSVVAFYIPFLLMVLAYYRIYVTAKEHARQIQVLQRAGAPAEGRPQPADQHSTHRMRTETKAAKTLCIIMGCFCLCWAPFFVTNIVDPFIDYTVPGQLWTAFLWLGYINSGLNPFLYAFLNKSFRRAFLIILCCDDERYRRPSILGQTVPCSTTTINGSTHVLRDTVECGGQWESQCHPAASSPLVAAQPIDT

Chain of Melanocortin receptor 3 (P41968 whole entry): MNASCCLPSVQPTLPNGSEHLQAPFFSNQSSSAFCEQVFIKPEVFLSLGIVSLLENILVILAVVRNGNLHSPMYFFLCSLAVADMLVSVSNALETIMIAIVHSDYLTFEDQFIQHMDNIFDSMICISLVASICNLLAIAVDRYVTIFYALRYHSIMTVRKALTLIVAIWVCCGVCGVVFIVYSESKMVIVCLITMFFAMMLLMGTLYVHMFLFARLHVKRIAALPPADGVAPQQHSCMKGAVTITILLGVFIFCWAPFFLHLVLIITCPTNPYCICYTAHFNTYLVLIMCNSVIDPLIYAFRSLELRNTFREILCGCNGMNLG

Consider `Cc1c(C)c2c(c(C)c1O)CCC(C)(COc1ccc(CC3SC(=O)NC3=O)cc1)O2` (configuration not stated) [TROGLITAZONE], for which the half-inhibitory concentration (IC50) entry in assay [1], in assay [2] (hek293), in assay [3], in assay [4] and in assay [5] was “Not Active” each time. Besides, the Ki result in assay [1] is “Not Active”.

Regarding `c1ccc([C@H]2CN3CCSC3=N2)cc1` [LEVAMISOLE], the half-maximal inhibitory concentration (IC50) result in assay [1], in assay [2] (hek293), in assay [3], in assay [4] and in assay [5] was “Not Active” in each case. The Ki entry in assay [1] is reported as “Not Active”.

On to `CC[C@]1(O)C[C@H]2CN(CCc3c([nH]c4ccccc34)[C@@](C(=O)OC)(c3cc4c(cc3OC)N(C=O)[C@H]3[C@@](O)(C(=O)OC)[C@H](OC(C)=O)[C@]5(CC)C=CCN6CC[C@]43[C@@H]65)C2)C1` [VINCRISTINE], for which the concentration for half-maximal inhibition (IC50) result in assay [1], in assay [2] (hek293), in assay [3], in assay [4] and in assay [5] was “Not Active” throughout. For the same molecule, the Ki entry in assay [1] was “Not Active”.

For the molecule `O=c1ncn2nc(Sc3ccc(F)cc3F)ccc2c1-c1c(Cl)cccc1Cl` [NEFLAMAPIMOD], the IC50 result in assay [1], in assay [2] (hek293), in assay [3], in assay [4] and in assay [5] was “Not Active” throughout. Moreover, the inhibition constant Ki result in assay [1] is on record as “Not Active”.

As to `NS(=O)(=O)c1cc2c(cc1Cl)NC(C(Cl)Cl)NS2(=O)=O` (configuration not stated) [TRICHLORMETHIAZIDE], the 50% inhibitory concentration (IC50) result in assay [1], in assay [2] (hek293), in assay [3], in assay [4] and in assay [5] was “Not Active” throughout. Also, the Ki entry in assay [1] is “Not Active”.

In the case of `CCCOc1ccccc1-c1nc2nn[nH]c2c(=O)[nH]1` [ZAPRINAST], the IC50 entry in assay [1], in assay [2] (hek293), in assay [3], in assay [4] and in assay [5] was “Not Active” each time. Also, in assay [1], the inhibition constant Ki result is on record as “Not Active”.

Turning to `N#CC(C#N)=Cc1ccc(O)c(O)c1` [TYRPHOSTIN 23], the half-inhibitory concentration (IC50) result in assay [1], in assay [2] (hek293), in assay [3], in assay [4] and in assay [5] was “Not Active” throughout. Moreover, the Ki entry in assay [1] is recorded as “Not Active”.

In the case of `C=CCC1(C(C)CCC)C(=O)NC(=O)NC1=O` (configuration not stated) [SECOBARBITAL], the IC50 entry in assay [1], in assay [2] (hek293), in assay [3], in assay [4] and in assay [5] was “Not Active” in each case. In assay [1], the Ki result is reported as “Not Active”.

With `OCCN(CCO)c1nc(N2CCCCC2)c2nc(N(CCO)CCO)nc(N3CCCCC3)c2n1` [DIPYRIDAMOLE], the IC50 was 1.58 µM in assay [1] (read-out: IC50); “Not Active” in assay [2] (hek293); “Not Active” in assay [3]; “Not Active” in assay [4]; “Not Active” in assay [5].

For the molecule `Nc1c2c(nc3ccccc13)CCCC2` [TACRINE], the IC50 result in assay [1], in assay [2] (hek293), in assay [3], in assay [4] and in assay [5] was “Not Active” throughout. Moreover, the inhibitory constant (Ki) entry in assay [1] was “Not Active”.

In the case of `Cn1ccnc1S` [METHIMAZOLE], the 50% inhibitory concentration (IC50) result in assay [1], in assay [2] (hek293), in assay [3], in assay [4] and in assay [5] was “Not Active” in each case. Further, in assay [1], the Ki entry was “Not Active”.

Take `N[C@@H]1[C@H]2CN(c3nc4c(cc3F)c(=O)c(C(=O)O)cn4-c3ccc(F)cc3F)C[C@@H]12` [TROVAFLOXACIN]: the 50% inhibitory concentration (IC50) result in assay [1], in assay [2] (hek293), in assay [3], in assay [4] and in assay [5] was “Not Active” each time. For the same molecule, the Ki result in assay [1] is “Not Active”.

Turning to `CC1(C)O[C@@H]2C[C@H]3[C@@H]4CCC5=CC(=O)C=C[C@]5(C)[C@@]4(F)[C@@H](O)C[C@]3(C)[C@]2(C(=O)CO)O1` [TRIAMCINOLONE ACETONIDE], the IC50 result in assay [1], in assay [2] (hek293), in assay [3], in assay [4] and in assay [5] was “Not Active” throughout. The Ki entry in assay [1] is given as “Not Active”.

Regarding `NC[C@H]1CC[C@H](C(=O)O)CC1` [TRANEXAMIC ACID], the IC50 entry in assay [1], in assay [2] (hek293), in assay [3], in assay [4] and in assay [5] was “Not Active” each time. For the same molecule, the inhibition constant (Ki) result in assay [1] is recorded as “Not Active”.

On to `COc1c(C)c2c(c(O)c1C/C=C(\C)CCC(=O)O)C(=O)OC2` [MYCOPHENOLIC ACID], for which the IC50 entry in assay [1], in assay [2] (hek293), in assay [3], in assay [4] and in assay [5] was “Not Active” throughout. The Ki result in assay [1] is on record as “Not Active”.

With `CC/C(=C(\c1ccccc1)c1ccc(OCCN(C)C)cc1)c1ccccc1` [TAMOXIFEN], the IC50 is 19.9 µM in assay [2] (read-out: IC50), “Not Active” in assay [4] and “Not Active” in assay [5]. The inhibition constant (Ki) in assay [2] (read-out: Ki) turned out to be 17.3 µM.

In the case of `N[C@@H](Cc1ccc(N(CCCl)CCCl)cc1)C(=O)O`, the IC50 result in assay [1], in assay [2] (hek293), in assay [3], in assay [4] and in assay [5] was “Not Active” each time. In addition, the Ki entry in assay [1] is “Not Active”.

`CO[C@H]1/C=C/O[C@@]2(C)Oc3c(C)c(O)c4c(O)c(c(/C=N/N5CCN(C)CC5)c(O)c4c3C2=O)NC(=O)/C(C)=C\C=C\[C@H](C)[C@H](O)[C@@H](C)[C@@H](O)[C@@H](C)[C@H](OC(C)=O)[C@@H]1C` [RIFAMPIN]: the IC50 result in assay [1], in assay [2] (hek293), in assay [3], in assay [4] and in assay [5] was “Not Active” throughout. In addition, the Ki entry in assay [1] is “Not Active”.

`O=NN(CCCl)C(=O)NC1CCCCC1` [LOMUSTINE]: the IC50 entry in assay [1], in assay [2] (hek293), in assay [3], in assay [4] and in assay [5] was “Not Active” throughout. For the same molecule, in assay [1], the Ki result is “Not Active”.

Regarding `CSc1ccc(/C=C2/C(C)=C(CC(=O)O)c3cc(F)ccc32)cc1` [SULINDAC SULFIDE], the concentration for half-maximal inhibition (IC50) entry in assay [1], in assay [2] (hek293), in assay [3], in assay [4] and in assay [5] was “Not Active” throughout. Also, in assay [1], the inhibitory constant (Ki) result is recorded as “Not Active”.

In the case of `Nc1nc2ccc(OC(F)(F)F)cc2s1` [RILUZOLE], the half-maximal inhibitory concentration (IC50) entry in assay [1], in assay [2] (hek293), in assay [3], in assay [4] and in assay [5] was “Not Active” in each case. Moreover, the Ki entry in assay [1] is “Not Active”.

On to SODIUM NITROPRUSSIDE, for which the 50% inhibitory concentration (IC50) result in assay [1], in assay [2] (hek293), in assay [3], in assay [4] and in assay [5] was “Not Active” throughout. For the same molecule, the Ki result in assay [1], in assay [2] (hek293), in assay [3], in assay [4] and in assay [5] was “Not Active” throughout.

In the case of `CN1CCN(CCCN2c3ccccc3Sc3ccc(Cl)cc32)CC1` [PROCHLORPERAZINE], the concentration for half-maximal inhibition (IC50) entry in assay [2] (hek293) is “Not Active”; in assay [4], “Not Active”; in assay [5] (read-out: IC50), 1.16 µM. The inhibitory constant (Ki) in assay [5] (read-out: Ki) came out at 0.194 µM.

As to `Cc1nc2n(c(=O)c1CCN1CCC(c3noc4cc(F)ccc34)CC1)CCCC2` [RISPERIDONE], the IC50 result in assay [2] (hek293), in assay [3], in assay [4] and in assay [5] was “Not Active” in each case.

As for `CCCCc1oc2ccccc2c1C(=O)c1cc(I)c(OCCN(CC)CC)c(I)c1` [AMIODARONE], the half-inhibitory concentration (IC50) result in assay [4] and in assay [5] was “Not Active” in each case.

Take `N[C@@H](Cc1cc(I)c(Oc2ccc(O)c(I)c2)c(I)c1)C(=O)O` [LIOTHYRONINE]: the IC50 result in assay [2] (hek293), in assay [3], in assay [4] and in assay [5] was “Not Active” in each case.
